The conditions of data set [1]: cited from earlier work.
Data set [2] in a line: Test Example 1: influence of pH value of hydrophilic solvent on fluorescence detection of 4-MU in droplets covered with FC40. To be noted: 50 μM 4-MU, 33 mM DEA-HCl, 4 mM CaCl2; buffer pH set higher than pKa (pH 8 or more) within pH 6.5 to 9.0; FC40 cover. Format: physicochemical. An excerpt:
According to the following procedure, the influence of the pH value of a hydrophilic solvent on detection sensitivity was studied.
First, according to a report by Kim et al. (“Quantifying genetically inserted fluorescent protein in single iPS cells to monitor Nanog expression using electroactive microchamber arrays”, Lab on Chip, 2014, Issue 4, Vol. 14, and p. 730-736), a droplet array device (DAD) was produced. A cover glass (24 mm×32 mm) was washed and dried. The cover glass was then spin-coated with an amorphous fluorine resin (CYTOP 816AP, AGC Inc.), and fired at 180° C. for 1 hour. The cover glass coated with the amorphous fluorine resin was spin-coated with a positive type photoresist (AZ-4903, AZ Electronic Materials), fired at 55° C. for 3 minutes, and then further fired at 110° C. for 5 minutes. The cover glass was subjected to photolithography by use of a photomask having holes each having a diameter of 3 μm at intervals of 5 μm. The cover glass was dry-etched with oxygen plasma, and then washed to obtain as the DAD. […]
With a CMOS camera (Neo sCMOS, Andor) connected to a fluorescence microscope (IX8, OLYMPUS), a fluorescent image of each of the droplets was photographed to measure fluorescence intensity. […] The fluorescent image was analyzed with an imaging analysis software (Meta-Morph, Molecular Devices), to calculate fluorescence intensity.

Data set [3] is described as follows: Test Example 2: influence of buffering substance (DEA) concentration on fluorescence intensity of 4-MU in droplets covered with FC40 over time. Format: physicochemical. To be noted: 4 mM CaCl2, pH 6.5, 50 μM 4-MU. On the procedure: According to the following procedure, the influence of the concentration of a buffering substance of a hydrophilic solvent on detection sensitivity was studied. 4-MU was dissolved in a concentration of 50 μM in a buffer solution (4 mM CaCl2, pH 6.5) having a DEA concentration adjusted to 25 mM to 1M. Into the array, 30 μL of the buffer solution in which 4-MU was dissolved was introduced, to fill each of the wells with the buffer solution (see FIG. 1A). Then, into the array, 200 μL of a hydrophobic solvent (FC40) was introduced, to form a droplet of the hydrophilic solvent covered with the hydrophobic solvent in each of the wells. Time-lapse photographing was performed under a fluorescence microscope to measure fluorescence intensity of each of the droplets.

On to `CCN(CC)c1ccc2c(-c3ccccc3C(=O)O)c3ccc(=[N+](CC)CC)cc-3oc2c1.[Cl-]` [rhodamine], for which the “acid dissociation constant (pKa)” value in data set [1] is on record as 6.0.
Take fluorescein: the “acid dissociation constant (pKa)” value in data set [1] is 6.4.
Regarding `Cc1cc(=O)oc2cc(O)ccc12` [4MU, 4-methylumbelliferone], the “fluorescence detection sensitivity in droplet (distribution/leakage to FC40)” value in data set [2] is on record as “detected with higher sensitivity”. Further, the “fluorescence intensity over time” value is recorded as “decrease in the fluorescence intensity was observed” in data set [3] (DEA 25 mM) and “maintained” in data set [3] (DEA 50 mM, for 10 minutes). Further, the “decrease in the fluorescence intensity over time” value in data set [3] (DEA 100 mM, for 30 minutes) is given as “significantly suppressed”; in data set [3] (DEA 500 mM, for 30 minutes), “significantly suppressed”; in data set [3] (DEA 1 M, after subtraction of fading due to exposure), “not observed”. The “acid dissociation constant (pKa)” value in data set [1] is reported as 7.79.
In the case of `O=c1ccc2nc3ccc(O)cc3oc-2c1` [resorufin], the “acid dissociation constant (pKa)” value in data set [1] is reported as 6.0.

The record behind these values is US11008603B2, “Method and kit for detecting pathogenic microorganism” (JAPAN SCIENCE AND TECHNOLOGY AGENCY, priority 2016, dated 2021).
